EP3355943B1, “METHODS AND SYSTEMS FOR TREATING MEDICAL DEVICES AND FLUIDS” (Ethicon, Inc., priority 2015, dated 2017)
Where two headings read alike, the source gives them in different places.

How the values were obtained:
[1] = Suture testing in aqueous suspension of CaSt: endotoxin detected on LPS-contaminated suture; format: biochemical
Description: Treatment of sutures in aqueous suspensions of CaSt was performed as follows: Suture used was VICRYL® (Polyglactin 910) suture made of a copolymer made from 90% glycolide and 10% L-lactide, Size 1, 27 inch pieces. […] Endosafe LAL Reagent Water (LRW) was used, manufactured by Charles River Laboratories, Charleston S.C..
Eight strands of suture were placed in tubing with LPS (endotoxin) solution for 10 minutes at a time. The sutures were dried for 20 minutes and then placed in round bottom tubes. Suspensions of 5% by weight CaSt in LAL Reagent Water were prepared. (0.5 g CaSt in 10 mL LRW). One suture was placed in each tube and vortexed in this solution for approximately 10 seconds. The sutures were removed and allowed to dry for 20 minutes and then placed in round bottom tubes. This was done for 3 sutures. Three pieces of suture, serving as the control, were not submerged in any solutions and placed in test tubes. 3 mL of LAL reagent water was added to each test tube, vortexed vigorously for 1 minute, and then placed in a hot water bath at 37°C for 1 hour. They were then removed, vortexed vigorously for 1 minute, diluted, and tested on the MCS system. […] These were also tested for endotoxin on the MCS. Table 4. Detection of LPS after adding CaSt to test tubes containing water spiked with LPS

[2] = Detection of LPS in water in presence of CaSt and EDTA and Tween 20; format: biochemical; details: 5mL, 8330 EU spiked; for Percent detected Endotoxin: 60 min
Description: Further testing was performed with addition of EDTA and Polysorbate 20 reagents to verify permanent removal of LPS/endotoxin activity, by adding EDTA and Polysorbate 20 to the extraction solutions to test for potential recovery of endotoxin activity when introduced to these two substances.
The testing was performed in aqueous solutions with added EDTA and Polysorbate 20, with suspended CaSt present in some solutions in varying quantities. […] The tubes were vortexed for 1 minute and placed in a 37C bath for 1 hour. The tubes were removed from the bath and again vortexed for 1 minute. The solutions were diluted and tested for endotoxin using the Kinetic Chromogenic Method for Endotoxin Quantitation, Charles River Laboratories, Charleston S.C. […] These samples were rigorously vortexed and tested using the Kinetic Chromogenic Method for Endotoxin Quantitation, Charles River Laboratories, Charleston S.C. […]

[3] = Testing of various sources of LPS: detection of LPS after adding CaSt to spiked water; format: biochemical
Description: Therefore, for the methods described above, the activity of endotoxin was tested with various sources of endotoxin. Laboratory grown endotoxin is purified while natural endotoxin will be present with other substances such as proteins and phospholipids.
The laboratory grown endotoxin used in this experiment was supplied by Charles River Laboratories.
Natural airborne endotoxin was captured using an electret filter. Electret filters are produced from dielectric polymer fibers that develop an electrical charge when air flows past them, capturing the endotoxin along with other particles. The endotoxin was extracted from the filter by placing the filter in endotoxin free water for an extended period of time.
Two other natural sources of endotoxin were obtained from water samples in the surrounding environment. One source was a pool of sitting rain water and other being a small puddle on the side of the Raritan River. The sitting rain water (SRW) was purified via chlorination and 0.2 µm filter. The Raritan River Water (RRW) was not altered in anyway. The same testing procedure was conducted for all sources of endotoxin.
Table 11. Detection of LPS after adding CaSt to test tubes containing water spiked with LPS

[4] = Kinetics of removal of LPS with different agitation techniques in presence of stearate salts; format: biochemical; details: for Endotoxin Detected (EU): 5mL SRW, baseline 1,502; for Percent (%) Removed: vs SRW Baseline
Description: 5mL of SRW was added to each of the tubes. Each solution was tested for endotoxin removal after agitation based on with sonication, vortexing, or test tube rolling. Sonication samples were sonicated at each indicated time interval for 30 seconds at a magnitude of 30. Vortex samples were vortexed at each indicated time interval for 30 seconds at 2500 RPM. Rolling samples were constantly rolling at 10 rpm. The samples were tested on the MCS for endotoxin at 1 minute, 20 minutes, 40 minutes, 60 minutes, and 80 minutes.

[5] = format: in vivo; details: female rats, observed 4 days
Description: An animal study was conducted with 30 female rats with weights ranging from 250-300g and acclimated for 5 days. All rats were dosed with intraperitoneal injections using 18 gauge needles. The rats were broken into 6 groups. A negative control (NC-1) dosed 5 rats with 5mL of normal saline solution. […] A positive control (PC-1) dosed 5 rats with 2.5 million EU in a 5mL saline solution. A second positive control (PC-2) was conducted dosing 5 rats with 5 million endotoxin units in a 5mL normal saline solution. Two experimental test groups were conducted.
The negative control samples also had no toxicity. Table 21. Results of animal study with CaSt dosing

[6] = Weight of Calcium Stearate 0.007 g
[7] = Weight of Calcium Stearate 0.018 g
[8] = Weight of Calcium Stearate 0.028 g
[9] = Charles River Standard, 0.018 g Calcium Stearate, 8330 EU spiked
[10] = Charles River Standard, 0.05 g Calcium Stearate, 8330 EU spiked
[11] = Charles River Standard, 0.15 g Calcium Stearate, 8330 EU spiked
[12] = Charles River Standard, 0.25 g Calcium Stearate, 8330 EU spiked
[13] = Dust Filter Extraction Water, 0.01 g Calcium Stearate, 9280 EU spiked
[14] = Dust Filter Extraction Water, 0.25 g Calcium Stearate, 9280 EU spiked
[15] = RRW, 0.01 g Calcium Stearate, 4340 EU spiked
[16] = RRW, 0.1 g Calcium Stearate, 4340 EU spiked
[17] = RRW, 0.25 g Calcium Stearate, 4340 EU spiked
[18] = SRW, 0.01 g Calcium Stearate, 11100 EU spiked

Q: With `CCCCCCCCCCCCCCCCCC(=O)O` [Calcium Stearate] as the compound, how does the “Endotoxin Detected (EU)” value ([1]; Water with 5% Calcium Stearate solution tested after suture removal (samples 4-6)) read?
A: <1.0 EU

Q: And the “Average Endotoxin Detected (EU)” value ([1]; suture submerged in LAL Water w/ 5% Calcium Stearate, samples 4-6)?
A: 3.27 EU

Q: What about the “Average Change in Endotoxin Level (%)” value ([1]; suture submerged in LAL Water w/ 5% Calcium Stearate, vs. sutures not submerged (84 EU)) of the same compound?
A: -96.1%

Q: And the “Endotoxin Detected (EU)” value [2, 6]?
A: 3995 EU

Q: And the “Percent detected Endotoxin” value [2, 6]?
A: 48.0%

Q: And the “Endotoxin Detected (EU)” value [2, 7]?
A: 1487.5 EU

Q: And the “Percent detected Endotoxin” value [2, 7]?
A: 17.9%

Q: And the “Endotoxin Detected (EU)” value [2, 8]?
A: 235 EU

Q: And the “Percent detected Endotoxin” value [2, 8]?
A: 2.8%

Q: And the “percent of endotoxin recovered” value ([3]; 0.1 grams of calcium stearate and higher, all sources of endotoxin)?
A: under 5%

Q: What about the “Endotoxin Detected (EU)” value ([3]; Charles River Standard, 0.007 g Calcium Stearate, 8330 EU spiked) of the same compound?
A: 3995 EU

Q: And the “Endotoxin Detected (EU)” value [3, 9]?
A: 1487.5 EU

Q: What about the “Percent of Endotoxin Detected” value [3, 9] of the same compound?
A: 17.9%

Q: What about the “Endotoxin Detected (EU)” value ([3]; Charles River Standard, 0.028 g Calcium Stearate, 8330 EU spiked) of the same compound?
A: 235 EU

Q: What about the “Endotoxin Detected (EU)” value [3, 10] of the same compound?
A: 190.5 EU

Q: What about the “Percent of Endotoxin Detected” value [3, 10] of the same compound?
A: 2.3%

Q: And the “Endotoxin Detected (EU)” value [3, 11]?
A: 86.5 EU

Q: What about the “Percent of Endotoxin Detected” value [3, 11] of the same compound?
A: 1.0%

Q: And the “Endotoxin Detected (EU)” value [3, 12]?
A: 38.5 EU

Q: What about the “Percent of Endotoxin Detected” value [3, 12] of the same compound?
A: 0.5%

Q: What about the “Endotoxin Detected (EU)” value [3, 13] of the same compound?
A: 3440 EU

Q: And the “Percent of Endotoxin Detected” value [3, 13]?
A: 37.1%

Q: And the “Endotoxin Detected (EU)” value [3, 14]?
A: 28.5 EU

Q: What about the “Percent of Endotoxin Detected” value [3, 14] of the same compound?
A: 0.3%

Q: And the “Endotoxin Detected (EU)” value [3, 15]?
A: 960 EU

Q: What about the “Percent of Endotoxin Detected” value [3, 15] of the same compound?
A: 22.1%

Q: And the “Endotoxin Detected (EU)” value [3, 16]?
A: 165 EU

Q: What about the “Percent of Endotoxin Detected” value [3, 16] of the same compound?
A: 3.8%

Q: And the “Endotoxin Detected (EU)” value [3, 17]?
A: 70 EU

Q: And the “Percent of Endotoxin Detected” value [3, 17]?
A: 1.6%

Q: What about the “Percent of Endotoxin Detected” value ([3]; RRW, 0.35 g Calcium Stearate, 4340 EU spiked) of the same compound?
A: 2.6%

Q: And the “Endotoxin Detected (EU)” value [3, 18]?
A: 2780 EU

Q: And the “Percent of Endotoxin Detected” value [3, 18]?
A: 25.0%

Q: What about the “Percent of Endotoxin Detected” value ([3]; SRW, 0.25 g Calcium Stearate, 11100 EU spiked) of the same compound?
A: 1.0%

Q: What about the “removal of LPS (in words), comparison of salts of stearic acid” value ([4]; CaSt vs. other salt forms) of the same compound?
A: more efficacious in removal of LPS

Q: What about the “Endotoxin Detected (EU)” value ([4]; Rolling, 1 minute) of the same compound?
A: 1,230 EU

Q: What about the “Percent (%) Removed” value ([4]; Rolling, 1 minute) of the same compound?
A: 18.1%

Q: And the “Endotoxin Detected (EU)” value ([4]; Rolling, 20 minutes)?
A: 1,050 EU

Q: What about the “Percent (%) Removed” value ([4]; Rolling, 20 minutes) of the same compound?
A: 30.1%

Q: What about the “Endotoxin Detected (EU)” value ([4]; Rolling, 40 minutes) of the same compound?
A: 630 EU

Q: What about the “Percent (%) Removed” value ([4]; Rolling, 40 minutes) of the same compound?
A: 58.1%

Q: What about the “Endotoxin Detected (EU)” value ([4]; Rolling, 60 minutes) of the same compound?
A: 637 EU

Q: What about the “Percent (%) Removed” value ([4]; Rolling, 60 minutes) of the same compound?
A: 57.6%

Q: What about the “Endotoxin Detected (EU)” value ([4]; Rolling, 80 minutes) of the same compound?
A: 451 EU

Q: What about the “Percent (%) Removed” value ([4]; Rolling, 80 minutes) of the same compound?
A: 70%

Q: What about the “Endotoxin Detected (EU)” value ([4]; Sonication, 1 minute) of the same compound?
A: 270 EU

Q: What about the “Percent (%) Removed” value ([4]; Sonication, 1 minute) of the same compound?
A: 82%

Q: What about the “Endotoxin Detected (EU)” value ([4]; Sonication, 20 minutes) of the same compound?
A: 130 EU

Q: What about the “Percent (%) Removed” value ([4]; Sonication, 20 minutes) of the same compound?
A: 91.3%

Q: What about the “Endotoxin Detected (EU)” value ([4]; Sonication, 40 minutes) of the same compound?
A: 87.5 EU

Q: And the “Percent (%) Removed” value ([4]; Sonication, 40 minutes)?
A: 94.2%

Q: And the “Endotoxin Detected (EU)” value ([4]; Sonication, 60 minutes)?
A: 56.9 EU

Q: And the “Percent (%) Removed” value ([4]; Sonication, 60 minutes)?
A: 96.2%

Q: What about the “Endotoxin Detected (EU)” value ([4]; Sonication, 80 minutes) of the same compound?
A: 16.4 EU

Q: What about the “Percent (%) Removed” value ([4]; Sonication, 80 minutes) of the same compound?
A: 98.9%

Q: What about the “Endotoxin Detected (EU)” value ([4]; Vortexing, 1 minute) of the same compound?
A: 451 EU

Q: And the “Percent (%) Removed” value ([4]; Vortexing, 1 minute)?
A: 70%

Q: And the “Endotoxin Detected (EU)” value ([4]; Vortexing, 20 minutes)?
A: 301 EU

Q: What about the “Percent (%) Removed” value ([4]; Vortexing, 20 minutes) of the same compound?
A: 80%

Q: And the “Endotoxin Detected (EU)” value ([4]; Vortexing, 40 minutes)?
A: 139 EU

Q: And the “Percent (%) Removed” value ([4]; Vortexing, 40 minutes)?
A: 90.7%

Q: What about the “Endotoxin Detected (EU)” value ([4]; Vortexing, 60 minutes) of the same compound?
A: 173 EU

Q: What about the “Percent (%) Removed” value ([4]; Vortexing, 60 minutes) of the same compound?
A: 88.5%

Q: What about the “Percent (%) Removed” value ([4]; Vortexing, 80 minutes) of the same compound?
A: 93.1%

Q: What about the “Results (toxicity)” value ([5]; NC-2: 0.2 g Calcium Stearate in 5.0 mL normal saline, intraperitoneal, no endotoxin) of the same compound?
A: No Toxicity Observed

Q: And the “Results (toxicity)” value ([5]; T-1: 2,500,000 EU + 0.2g Calcium Stearate + normal saline (5.0 mL) dosed IP)?
A: No Toxicity Observed

Q: And the “Results (toxicity)” value ([5]; T-1: 2,500,000 EU + 0.2g Calcium Stearate + normal saline (5.0 mL) dosed IP, listed as calcium stearate)?
A: no toxicity or adverse effects

Q: And the “Results (toxicity)” value ([5]; T-2: 5,000,000 EU + 0.2g Calcium Stearate + normal saline (5.0 mL) dosed IP)?
A: No Toxicity Observed

Q: And the “Results (toxicity)” value ([5]; T-2: 5,000,000 EU + 0.2g Calcium Stearate + normal saline (5.0 mL) dosed IP, listed as calcium stearate)?
A: no toxicity or adverse effects
